Key:
[1] = system: SMN2 minigene mRNA (SMN2-A minigene) in HEK293H cells; test: SMN2 minigene mRNA splicing RT-qPCR assay in cultured cells; assay type: cell-based, human; details: Homo sapiens, HEK293-H; concentration increasing full length SMN2 mRNA 1.5-fold relative to vehicle-treated cells; HEK293H cells with SMN2-A minigene, 24 hours, 7-point concentration data; read-out: EC1.5x for production of full length SMN2 mRNA
How it was run: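 Read-out: minigene-specific full-length (exon 7-included) SMN2 mRNA by one-step multiplex RT-qPCR, normalized to GAPDH and divided by vehicle-treated level. Stable SMN2-A minigene HEK293H cells, 24 h compound exposure, 7 concentrations in duplicate. EC1.5× = concentration raising FL mRNA 1.5-fold.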

[2] = system: Smn protein in SMA patient fibroblast cells (GM03813); test: Smn protein assay in cultured cells (SMN HTRF); assay type: cell-based, human; details: SMA patient fibroblast cells, 48 hours; for EC1.5x for Smn protein expression: 7-point concentration curve, SMN HTRF, concentration producing 1.5 times Smn protein vs DMSO vehicle control; for maximum fold (Fold) increase of Smn protein: 7-point concentration data, fold relative to vehicle control
How it was run: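 Read-out: HTRF 665/620 nm ratio, blank-subtracted as ΔF, then expressed as fold over DMSO vehicle. Fibroblasts from SMA patients were exposed to compounds for 48 h (7 points, 3.16-fold steps, triplicates). Values are EC1.5× and maximum fold Smn increase.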

SMILES | melting point [°C] | EC (1.5-fold increase) [1] [µM] | EC1.5x for Smn protein expression [2] | maximum fold (Fold) increase of Smn protein [2]
Cc1cn2nc(-c3cc(=O)n4cc(N5CCN(C)[C@H](C)C5)ccc4n3)cc2c(C)n1 [Compound 397, 7-[(3R)-3,4-dimethylpiperazin-1-yl]-2-(4,6-dimethylpyrazolo[1,5-a]pyrazin-2-yl)-4H-pyrido[1,2-a]pyrimidin-4-one] | 247 to 249 | < 0.1 | **** (an EC1.5x≤0.3 μM is indicated by four stars (****)) | ***** (a fold increase >1.65 is indicated by five stars (*****))
Cc1cn2nc(-c3cc(=O)n4cc(N5C[C@@H]6C[C@H]5CN6)ccc4n3)cc2c(C)n1 [Compound 399, 7-[(1S,4S)-2,5-diazabicyclo[2.2.1]hept-2-yl]-2-(4,6-dimethylpyrazolo[1,5-a]pyrazin-2-yl)-4H-pyrido[1,2-a]pyrimidin-4-one] | 218 to 221 | 0.3 to 1 | *** (an EC1.5× between >0.3 μM and ≤1 μM is indicated by three stars (***)) | **** (a fold increase between >1.5 and ≤1.65 is indicated by four stars (****))
Cc1cn2nc(-c3cc(=O)n4cc(N5C[C@@H]6C[C@H]5CN6C)ccc4n3)cc2c(C)n1 [Compound 400, 2-(4,6-dimethylpyrazolo[1,5-a]pyrazin-2-yl)-7-[(1S,4S)-5-methyl-2,5-diazabicyclo[2.2.1]hept-2-yl]-4H-pyrido[1,2-a]pyrimidin-4-one] | 188 to 191 | 0.1 to 0.3 | *** (an EC1.5× between >0.3 μM and ≤1 μM is indicated by three stars (***)) | **** (a fold increase between >1.5 and ≤1.65 is indicated by four stars (****))
CCN1C[C@@H]2C[C@H]1CN2c1ccc2nc(-c3cc4c(C)nc(C)cn4n3)cc(=O)n2c1 [Compound 401, 2-(4,6-dimethylpyrazolo[1,5-a]pyrazin-2-yl)-7-[(1S,4S)-5-ethyl-2,5-diazabicyclo[2.2.1]hept-2-yl]-4H-pyrido[1,2-a]pyrimidin-4-one] | 175 to 177 | 0.1 to 0.3 | *** (an EC1.5× between >0.3 μM and ≤1 μM is indicated by three stars (***)) | ***** (a fold increase >1.65 is indicated by five stars (*****))
COc1ccc(-c2cc(=O)n3cc(C4CCNCC4)ccc3n2)cc1F [Compound 403, 2-(3-fluoro-4-methoxyphenyl)-7-(piperidin-4-yl)-4H-pyrido[1,2-a]pyrimidin-4-one] | 122 to 125 | < 0.1 | ** (an EC1.5× between >1 μM and ≤3 μM is indicated by two stars (**)) | **** (a fold increase between >1.5 and ≤1.65 is indicated by four stars (****))
CCc1cc(C2=CCNCC2)cn2c(=O)cc(-c3ccc(OC)c(OC)c3)nc12 [Compound 408, 2-(3,4-dimethoxyphenyl)-9-ethyl-7-(1,2,3,6-tetrahydropyridin-4-yl)-4H-pyrido[1,2-a]pyrimidin-4-one] | 171 to 177 | < 0.1 | – | ** (a fold increase between >1.2 and ≤1.35 is indicated by two stars (**))
Cc1cn2cc(-c3ccc4nc(C5CCNCC5)cc(=O)n4c3)ccc2n1 [Compound 409, 7-(2-methylimidazo[1,2-a]pyridin-6-yl)-2-(piperidin-4-yl)-4H-pyrido[1,2-a]pyrimidin-4-one] | 255 to 258 | < 0.1 | **** (an EC1.5x≤0.3 μM is indicated by four stars (****)) | ***** (a fold increase >1.65 is indicated by five stars (*****))
Cc1cn2cc(-c3ccc4nc(C5CCNCC5)cc(=O)n4c3)cc(F)c2n1 [Compound 410, 7-(8-fluoro-2-methylimidazo[1,2-a]pyridin-6-yl)-2-(piperidin-4-yl)-4H-pyrido[1,2-a]pyrimidin-4-one] | 295 to 298 | < 0.1 | **** (an EC1.5x≤0.3 μM is indicated by four stars (****)) | ***** (a fold increase >1.65 is indicated by five stars (*****))
Cc1cn2cc(-c3ccc4nc(C5=CCN(C)CC5)cc(=O)n4c3)cc(F)c2n1 [Compound 411, 7-(8-fluoro-2-methylimidazo[1,2-a]pyridin-6-yl)-2-(1-methyl-1,2,3,6-tetrahydropyridin-4-yl)-4H-pyrido[1,2-a]pyrimidin-4-one] | 218 to 222 | < 0.1 | – | *** (a fold increase between >1.35 and ≤1.5 is indicated by three stars (***))
Cc1cn2cc(-c3cc(=O)n4cc(C5=CCNCC5)ncc4n3)cc2c(C)n1.Cl.Cl [Compound 413, 2-(1,3-dimethylpyrrolo[1,2-a]pyrazin-7-yl)-7-(1,2,3,6-tetrahydropyridin-4-yl)-4H-pyrazino[1,2-a]pyrimidin-4-one hydrochloride (1:2)] | > 300 | < 0.1 | **** (an EC1.5x≤0.3 μM is indicated by four stars (****)) | **** (a fold increase between >1.5 and ≤1.65 is indicated by four stars (****))
CCc1cc(C2=CCN(C)CC2)cn2c(=O)cc(-c3ccc(OC)c(OC)c3)nc12 [Compound 415, 2-(3,4-dimethoxyphenyl)-9-ethyl-7-(1-methyl-1,2,3,6-tetrahydropyridin-4-yl)-4H-pyrido[1,2-a]pyrimidin-4-one] | 177 to 182 | < 0.1 | – | *** (a fold increase between >1.35 and ≤1.5 is indicated by three stars (***))
CCc1cc(C2=CCN(CC)CC2)cn2c(=O)cc(-c3ccc(OC)c(OC)c3)nc12 [Compound 418, 2-(3,4-dimethoxyphenyl)-9-ethyl-7-(1-ethyl-1,2,3,6-tetrahydropyridin-4-yl)-4H-pyrido[1,2-a]pyrimidin-4-one] | 148 to 153 | < 0.1 | – | *** (a fold increase between >1.35 and ≤1.5 is indicated by three stars (***))

Now from value to molecule, other results behind:

melting point [°C] | SMILES | EC (1.5-fold increase) [1] [µM] | EC1.5x for Smn protein expression [2] | maximum fold (Fold) increase of Smn protein [2]
155 to 157 | CCN1CCC(c2ccc3nc(-c4ccc(OC)c(OC)c4)cc(=O)n3c2)CC1 [Compound 404, 2-(3,4-dimethoxyphenyl)-7-(1-ethylpiperidin-4-yl)-4H-pyrido[1,2-a]pyrimidin-4-one] | 0.3 to 1 | ** (an EC1.5× between >1 μM and ≤3 μM is indicated by two stars (**)) | **** (a fold increase between >1.5 and ≤1.65 is indicated by four stars (****))
156 to 158 | CN[C@H]1CC[C@@H](c2ccc3nc(-c4ccc(OC)c(OC)c4)cc(=O)n3c2)CC1 [Compound 405, 2-(3,4-dimethoxyphenyl)-7-[cis-4-(methylamino)cyclohexyl]-4H-pyrido[1,2-a]pyrimidin-4-one] | 0.1 to 0.3 | *** (an EC1.5× between >0.3 μM and ≤1 μM is indicated by three stars (***)) | **** (a fold increase between >1.5 and ≤1.65 is indicated by four stars (****))
126 to 129 | COc1ccc(-c2cc(=O)n3cc(C4CCCNC4)ccc3n2)cc1OC (centres unmarked) [Compound 406, 2-(3,4-dimethoxyphenyl)-7-(piperidin-3-yl)-4H-pyrido[1,2-a]pyrimidin-4-one] | 0.3 to 1 | * (An EC1.5× for Smn protein expression between >3 μM and ≤10 μM is indicated by one star (*)) | *** (a fold increase between >1.35 and ≤1.5 is indicated by three stars (***))
254 to 258 | Cc1cn2cc(-c3cc(=O)n4cc(N5CCN(C6CC6)CC5)ccc4n3)cc(F)c2n1 [Compound 412, 7-(4-cyclopropylpiperazin-1-yl)-2-(8-fluoro-2-methylimidazo[1,2-a]pyridin-6-yl)-4H-pyrido[1,2-a]pyrimidin-4-one] | < 0.1 | **** (an EC1.5x≤0.3 μM is indicated by four stars (****)) | ***** (a fold increase >1.65 is indicated by five stars (*****))
178 to 183 | COc1ccc(-c2cc(=O)n3cc(N4CCC(NC(C)C)CC4)cc(C)c3n2)cc1OC [Compound 416, 2-(3,4-dimethoxyphenyl)-9-methyl-7-[4-(propan-2-ylamino)piperidin-1-yl]-4H-pyrido[1,2-a]pyrimidin-4-one] | < 0.1 | ** (an EC1.5× between >1 μM and ≤3 μM is indicated by two stars (**)) | *** (a fold increase between >1.35 and ≤1.5 is indicated by three stars (***))
183 to 189 | COc1ccc(-c2cc(=O)n3cc(N4CCN5CCC[C@H]5C4)cc(C)c3n2)cc1OC [Compound 417, 2-(3,4-dimethoxyphenyl)-7-[(8aS)-hexahydropyrrolo[1,2-a]pyrazin-2(1H)-yl]-9-methyl-4H-pyrido[1,2-a]pyrimidin-4-one] | 0.1 to 0.3 | ** (an EC1.5× between >1 μM and ≤3 μM is indicated by two stars (**)) | **** (a fold increase between >1.5 and ≤1.65 is indicated by four stars (****))

Source: patent US11753407B2, “Compounds for treating spinal muscular atrophy” (PTC Therapeutics, Inc., priority 2012, dated 2023)
